What was measured:
[1] = system: Septoria tritici; experiment: Septoria tritici test (wheat)/protective; assay type: in vivo; conditions: single active compound, rate of application 125 ppm, protective, evaluated 20 days after inoculation
Description: (§1) Solvent: 50 parts by weight of n,n-dimethylacetamid
(§2) Emulsifier: 1 part by weight of alkylaryl polyglycol ether
(§3) To produce a suitable preparation of active compound, 1 part by weight of active compound or active compound combination is mixed with the stated amounts of solvent and emulsifier, and the concentrate is diluted with water to the desired concentration.
To test the protective activity, young plants are sprayed with a preparation of active compound or active compound combination at the stated rate of application. After the spray coating has been dried, the plants are sprayed with a spore suspension of Septoria tritici. The plants remain for 48 hours at 20° C. and then 60 hours at 15° C. in an incubation cabinet at a relative atmospheric humidity of 100%.
(§4) The plants are placed in a greenhouse at a temperature of approximately 15° C. and a relative atmospheric humidity of approximately 80%.
The test is evaluated 20 days after inoculation. 0% means an efficacy which corresponds to that of the control, while an efficacy of 100% means that no disease is observed.

[2] = system: Leptosphaeria nodorum; experiment: Leptosphaeria nodorum test (wheat)/protective; assay type: in vivo; conditions: single active compound, 125 ppm, protective, evaluated 10 days after inoculation
Description: as §1, §2, §3
To test for protective activity, young plants are sprayed with a preparation of active compound or active compound combination at the stated rate of application. After the spray coating has been dried, the plants are sprayed with a spore suspension of Leptosphaeria nodorum. The plants remain for 48 hours in an incubation cabinet at 20° C. and a relative atmospheric humidity of 100%.
as §4
The test is evaluated 10 days after the inoculation. 0% means an efficacy which corresponds to that of the control, while an efficacy of 100% means that no disease is observed.

[3] = LogP (HCOOH)
[4] = system: Botrytis cinerea; experiment: Botrytis test (beans)/protective; assay type: in vivo; conditions: single active compound, protective, evaluated 2 days after inoculation
Description: Solvent: 24.5 parts by weight of acetone • 24.5 parts by weight of dimethylacetamide
as §2
To produce a suitable preparation of active compound, 1 part by weight of active compound is mixed with the stated amounts of solvent and emulsifier, and the concentrate is diluted with water to the desired concentration.
To test for protective activity, young plants are sprayed with the preparation of active compound. After the spray coating has dried on, 2 small pieces of agar covered with growth of Botrytis cinerea are placed on each leaf. The inoculated plants are placed in a darkened chamber at 20° C. and a relative atmospheric humidity of 100%.
2 days after the inoculation, the size of the lesions on the leaves is evaluated. 0% means an efficacy which corresponds to that of the control, while an efficacy of 100% means that no disease is observed.

Row | Compound | Efficacy in % a.e. (actual efficacy) [1] | Efficacy in % a.e. (actual efficacy) [2] | Efficacy in % ([4]; 100 ppm) | Efficacy in % ([4]; 10 ppm) | other results
1 | N#Cc1c[nH]cc1-c1cccc2c1OC(F)(F)O2 [(b-19)] | 30% |  |  |  | 
2 | CC(C)(C)C#Cc1ccc(-c2ccccc2NC(=O)c2cccnc2Cl)cc1 [(b-7)] |  | 67% |  |  | 
3 | CC(C)[C@@H]1C2CCC1c1c(NC(=O)c3cn(C)nc3C(F)F)cccc12 (some centres unmarked) [(b-17)] | 30% |  |  |  | 
4 | Cc1cc(OCCC[Si](C)(C)C)c(C(F)F)cc1N [5-(difluoromethyl)-2-methyl-4-[3-(trimethylsilyl)propoxy]aniline] |  |  |  |  | chromatographic logP ([3]; HCOOH (formic acid)): 3.8
5 | Cc1cc(Br)c(C=O)cc1[N+](=O)[O-] [2-bromo-4-methyl-5-nitrobenzaldehyd, 2-bromo-4-methyl-5-nitrobenzaldehyde] |  |  |  |  | chromatographic logP ([3]; HCOOH): 2.61
6 | Cn1cc(C(=O)Nc2ccccc2C2CC2C2CC2)c(C(F)F)n1 (centres unmarked) [(b-1), reference compound] | 10% |  | 38% |  | 
7 | Cc1cc(OCCC[Si](C)(C)C)c(C(F)F)cc1[N+](=O)[O-] [{3-[2-(difluoromethyl)-5-methyl-4-nitrophenoxy]propyl}(trimethyl)silane] |  |  |  |  | chromatographic logP ([3]; HCOOH): 5.44
8 | CCN(C)/C=N/c1cc(C(F)F)c(OCCC[Si](C)(C)C)cc1C [(1-42), N′-{5-(difluoromethyl)-2-methyl-4-[3-(trimethylsilyl)propoxy]phenyl}-N-ethyl-N-methylimidoformamide] |  |  | 29% | 0% | chromatographic logP ([3]; HCOOH (formic acid)): 2.81
9 | Cn1cc(C(=O)Nc2ccccc2-c2ccc(C#CC(C)(C)C)cc2)c(C(F)F)n1 [(b-5), reference compound] |  | 67% |  | 80% | 
10 | CCN(C)/C=N/c1cc(C(F)(F)F)c(OCCC[Si](C)(C)C)cc1C [(1-37), N-[5-trifluoro-methyl-2-methyl-4-[3-(trimethylsilyl)propoxyl]phenyl]-N-ethyl-N-methyl-methanimidamide] | 30% | 92% | 23% | 0% | 
